Data from patent US20150315241A1, “Antibiotic Peptides” (priority 2007, published 2015).
≈ marks a conversion by molar mass, not a printed value. Where a SMILES comes first, the peptide text is derived from it. [ ]: non-standard residue; d: D form. The star is where a group is joined. Orn(α-tetramethylguanidino) = CN(C)C(=N[C@@H](CCCN)C(=O)*)N(C)C; Hyp = O=C(O)[C@@H]1C[C@@H](O)CN1; Cit = NC(=O)NCCC[C@H](N)C(=O)O; Tle = CC(C)(C)[C@H](N)C(=O)O; Orn = NCCC[C@H](N)C(=O)O

Columns and labels:
M. luteus ATCC 10240 = format: cell-based, Micrococcus luteus; conditions: ATCC 10240, 20 h
Method: (§1) The minimal inhibition concentrations (MIC) of the apidaecin-derived peptides and peptide-derivatives were determined by a growth inhibition assay using a serial peptide dilution in sterilized round-bottom 96-well plates (polystyrene, U-bottom, Greiner Bio-One GmbH) with a final volume of 100 μL per well. The bacteria, e.g., E. coli BL21 A1, were grown in nutrient broth (NB, Carl Roth GmbH+Co. KG, Karlsruhe, Germany) at 37° C. over night. To each well of the 96-well plate, 50 μL of the overnight culture adjusted to 5×10^6 CFU/mL in 1% TSB were added. Lyophilized peptides and peptidomimetics were dissolved in 1% TSB (tryptic soy broth) or water to give a final concentration of 250 μg/mL. Fifty μL of the peptide or peptidomimetics solution were added to the first well of a row on the plate and mixed. Fifty μL of the first well containing the peptide solution were transferred to the second well, mixed and again 50 μL transferred to the next well and so on. Thereby, a two-fold dilution series was obtained starting at 250 μg/mL in the first well down to 120 ng/mL in the 12th well of a row giving a final peptide or peptidomimetics concentration from 125 μg/mL (well 1) to 60 ng/mL (well 12). Plates were incubated at 37° C. for 20 hrs. The absorbance was measured at 595 nm using a TECAN micro plate spectrophotometer (Tecan, Germany). All peptides and peptidomimetics were measured in triplicates. Sterilized water was used as a negative control.
(§2) The bacteria strains were tested: • Eschericha coli 1103, 10233, BL 21 AI, DC 2, • Klebsiella pneumoniae 681, • Micrococcus luteus ATCC 10240, • Mycobacterium vaccae • Bactillus subtillis 347.

E. coli BL 21 AI = experiment: Growth inhibition assay (MIC); format: cell-based, Escherichia coli; conditions: 1% TSB, 37° C., 20 hrs
Method: as §1, §2

Structure (SMILES)	MIC M. luteus ATCC 10240 (M. luteus ATCC 10240) [µg/mL]	MIC E. coli BL 21 AI (E. coli BL 21 AI) [µg/mL]
CC[C@H](C)[C@H](NC(=O)[C@H](CCCNC(=N)N)NC(=O)[C@@H]1CCCN1C(=O)[C@H](Cc1c[nH]cn1)NC(=O)[C@@H]1CCCN1C(=O)[C@@H]1CCCN1C(=O)[C@H](CCCNC(=N)N)NC(=O)[C@@H]1CCCN1C(=O)[C@H](CCC(N)=O)NC(=O)[C@@H]1CCCN1C(=O)[C@@H](NC(=O)[C@H](Cc1ccc(O)cc1)NC(=O)[C@@H](NC(=O)[C@@H]1CCCN1C(=O)[C@H](CCCNC(=N)N)NC(=O)[C@H](CC(N)=O)NC(=O)[C@H](CC(N)=O)NC(=O)[C@@H](N)CCCN)C(C)C)[C@@H](C)CC)C(N)=O [compound 62] (H-[Orn]NNRPVYIPQPRPPHPRI-NH2)	7.81 (≈ 3.61 µM)	1.95 (≈ 0.901 µM)
CC[C@H](C)[C@H](NC(=O)[C@H](CCCNC(=N)N)NC(=O)[C@@H]1CCCN1C(=O)[C@H](Cc1c[nH]cn1)NC(=O)[C@@H]1CCCN1C(=O)[C@@H]1CCCN1C(=O)[C@H](CCCNC(=N)N)NC(=O)[C@@H]1CCCN1C(=O)[C@H](CCC(N)=O)NC(=O)[C@@H]1CCCN1C(=O)[C@@H](NC(=O)[C@H](Cc1ccc(O)cc1)NC(=O)[C@@H](NC(=O)[C@@H]1CCCN1C(=O)[C@H](CCCNC(=N)N)NC(=O)[C@H](CC(N)=O)NC(=O)[C@H](CC(N)=O)NC(=O)[C@H](CCCN)NC(C)=O)C(C)C)[C@@H](C)CC)C(N)=O [compound 63] (Ac-[Orn]NNRPVYIPQPRPPHPRI-NH2)	3.91 (≈ 1.77 µM)	3.91 (≈ 1.77 µM)
CC[C@H](C)[C@H](NC(=O)[C@H](Cc1ccc(O)cc1)NC(=O)[C@@H](NC(=O)[C@@H]1CCCN1C(=O)[C@H](CCCNC(=N)N)NC(=O)[C@H](CC(N)=O)NC(=O)[C@H](CC(N)=O)NC(=O)CN)C(C)C)C(=O)N1CCC[C@H]1C(=O)N[C@@H](CCC(N)=O)C(=O)N1CCC[C@H]1C(=O)N[C@@H](CCCNC(=N)N)C(=O)N1CCC[C@H]1C(=O)N1CCC[C@H]1C(=O)N[C@@H](Cc1c[nH]cn1)C(=O)N1CCC[C@H]1C(=O)N[C@@H](CCCNC(=N)N)C(=O)N[C@H](C(N)=O)C(C)(C)C [compound 78] (H-GNNRPVYIPQPRPPHPR[Tle]-NH2)	31.25 (≈ 14.8 µM)	–
CC[C@H](C)[C@H](NC(=O)[C@H](CCCNC(=N)N)NC(=O)[C@@H]1CCCN1C(=O)[C@H](Cc1c[nH]cn1)NC(=O)[C@@H]1CCCN1C(=O)[C@@H]1CCCN1C(=O)[C@H](CCCNC(=N)N)NC(=O)[C@@H]1C[C@@H](O)CN1C(=O)[C@H](CCCNC(=N)N)NC(=O)[C@@H]1CCCN1C(=O)[C@@H](NC(=O)[C@H](Cc1ccc(O)cc1)NC(=O)[C@@H](NC(=O)[C@@H]1CCCN1C(=O)[C@H](CCCNC(=N)N)NC(=O)[C@H](CC(N)=O)NC(=O)[C@H](CC(N)=O)NC(=O)CN)C(C)C)[C@@H](C)CC)C(N)=O [compound 90] (H-GNNRPVYIPR[Hyp]RPPHPRI-NH2)	7.81 (≈ 3.63 µM)	–
CC[C@H](C)[C@H](NC(=O)[C@H](Cc1ccc(O)cc1)NC(=O)[C@@H](NC(=O)[C@@H]1CCCN1C(=O)[C@H](CCCNC(=N)N)NC(=O)[C@H](CC(N)=O)NC(=O)[C@H](CC(N)=O)NC(=O)[C@H](CCCN)N=C(N(C)C)N(C)C)C(C)C)C(=O)N1CCC[C@H]1C(=O)N[C@@H](CCCNC(=N)N)C(=O)N1CCC[C@H]1C(=O)N[C@@H](CCCNC(=N)N)C(=O)N1CCC[C@H]1C(=O)N1CCC[C@H]1C(=O)N[C@@H](Cc1c[nH]cn1)C(=O)N1CCC[C@H]1C(=O)N[C@@H](CCCNC(N)=O)C(=O)N[C@@H](CC(C)C)C(N)=O [compound 151] ({Orn(α-tetramethylguanidino)}-NNRPVYIPRPRPPHP[Cit]L-NH2; N-terminus and C-terminus assumed)	64 (≈ 27.9 µM)	–
